Laboratory results reported in PMC7663184, “Vitamin B3-Based Biologically Active Compounds as Inhibitors of Human Cholinesterases” (International Journal of Molecular Sciences, 2020).
Entries after “also recorded” stand apart in the source; their conditions may differ.

Tests used:
[1] = Cytotoxicity assay (MTS) on HEK293 cells; type: cell-based
Description: (§1) SH-SY5Y were grown in DMEM F12 (Sigma-Aldrich, Steinheim, Germany) supplemented with 15% (v/v) fetal bovine serum (Sigma-Aldrich, Steinheim, Germany), 1% (v/v) non-essential amino acids (NEAA, Sigma-Aldrich, Steinheim, Germany) and 1% (v/v) antibiotics solution Penicilin-Streptomycin (Sigma-Aldrich, Steinheim, Germany) while HEK293 were grown in EMEM (Sigma-Aldrich, Steinheim, Germany) supplemented with 10% (v/v) fetal bovine serum (Sigma-Aldrich, Steinheim, Germany), 1% (v/v) non-essential amino acids (NEAA, Sigma-Aldrich, Steinheim, Germany) and 1% (v/v) antibiotics solution Penicilin-Streptomycin (Sigma-Aldrich, Steinheim, Germany).
(§2) After cultivation, the cells were detached using 0.25% Trypsin/EDTA solution (Sigma-Aldrich, St. Louis, MO, USA), re-suspended and seeded at density of 20,000 cells/well in 96-well plates for experiments. The assay in 96-well was performed in 120 µL/well media volume. […] The procedure followed a previously described protocol and the manufacturer’s recommendations. […] Data was evaluated from at least two or three experiments (each in duplicate or triplicate) using IC50 nonlinear fit equation predefined in Prism6 software and presented as percentage of inhibition to control untreated cells.

[2] = molecular target: human AChE (Homo sapiens, UniProt P22303); test: AChE reversible inhibition (Ellman's method, Hunter–Downs evaluation); type: biochemical; conditions: for Ki: human erythrocyte AChE, ATCh substrate, 0.1 M sodium phosphate buffer pH 7.4, at least three experiments, read-out: Ki ± SE AChE; for Ki (AChE)/Ki (BChE): selectivity ratio of measured Ki values
Source text: The determined BChE phenotype was UU (usual).

[3] = Cytotoxicity assay (MTS) on SH-SY5Y cells; type: cell-based; conditions: human; SH-SY5Y cells, MTS assay, 6.25–800 µM, mean of at least three experiments with standard error
Description: as §1, §2

[4] = molecular target: human BChE (Homo sapiens, UniProt P06276); test: BChE reversible inhibition (Ellman's method, Hunter–Downs evaluation)
[5] = system: phospho-Akt (Ser473); test: Intracellular signalling by Western blot: phospho-Akt; type: cell-based, human; conditions: serum-starved HEK293 cells, 100 μM, 10 or 30 min, vs. Basal
Description: (§3) Intracellular signalling in the presence of the selected nicotinamide derivative was evaluated on HEK293 cells. To enhance attachment of HEK293 cells, 12-well plates were aseptically pre-coated with poly-lysin (50 µg/mL, 0.5 mL/well). After 1-h incubation, the solution was removed, surface rinsed with sterile demineralized water and allowed to dry for 1 h. HEK293 cells were seeded at a density of 300,000 cells/well in DMEM (1 g/L glucose, Gibco, Paisley, UK) supplemented with 10% (v/v) FBS (Gibco, Paisley, UK) and 1% (v/v) Pen-Strep (Gibco, Paisley, UK). The next day (after 20 h) the medium was replaced with DMEM without additions. The cells were serum-starved for 4 h. During the last 10 and 30 min, the cells were treated with 100 μM 3, 4, 5 or 8. Basal (control) samples were treated with vehicle (DMSO) for 30 min. At the end of the experiment, cells were washed with ice-cold PBS and lysed in Laemmli buffer (62.5 mM Tris-HCl (pH 6.8), 2% (w/v) sodium dodecyl sulfate (SDS), 10% (w/v) glycerol, 5% (v/v) 2-mercaptoethanol, 0.002% (w/v) bromophenol blue). The proteins were resolved with SDS-PAGE (precasted 4–12% polyacrylamide gels, Bio-Rad, CA, USA) and transferred to the PVDF membrane (Merck Millipore, Darmstadt, Germany) with wet electrotransfer using Criterion system and Bis-Tris gradient gels (Bio-rad, CA, USA). After the transfer, the membranes were stained with Ponceau S (0.1% (w/v) in 5% (v/v) acetic acid) to evaluate uniformity of sample loading and efficiency of transfer. The membranes were then blocked with 7.5% (w/v) dry milk in Tris-buffered saline with Tween 20 (TBST: 20 mM Tris, 150 mM NaCl, 0.02% (v/v) Tween 20, pH 7.5) for 1 h at room temperature. After blocking, the membranes were incubated with the primary antibody in the primary antibody buffer (20 mM Tris, 150 mM NaCl, pH 7.5, 0.1% (w/v) BSA and 0.1% (w/v) sodium azide) overnight at 4 °C and then with the secondary antibody-horseradish peroxidase conjugate (Bio-Rad, CA, USA) in TBST with 5% (w/v) dry milk for 1 h at room temperature. Finally, the membranes were incubated with enhanced chemiluminescence (ECL) reagent (Bio-Rad, CA, USA) and then immunolabelled proteins were visualized on X-ray films. Films were scanned with GS-800 Densitometer (Bio-Rad, CA, USA) and analysed with Quantity One 1-D 4.6.8 Analysis Software (Bio-Rad, CA, USA). […] Target proteins were detected using primary antibodies against phospho-Akt (Ser473, Cell Signaling #4060, Netherlands) phospho-ERK1/2 (Thr202/Tyr204, Cell Signaling #4370, Netherlands), phospho-S6 ribosomal protein (Ser235/236, Cell Signaling #2211, Netherlands), phospho-AMPK (Thr172, Cell Signaling #2535, Netherlands), phospho-acetyl-CoA carboxylase (Ser79, Cell Signaling #3661, Netherlands) and HIF-1α (Novus Biologicals NB100–449, CO, USA).

[6] = system: HEK293 cells; test: Cytotoxicity assay (MTS) on HEK293 cells; type: cell-based; conditions: for time dependence of cytotoxicity on HEK293 cells: 1-, 4- and 24-h treatment
Description: as §1, §2

[7] = system: phospho-ERK1/2 (Thr202/Tyr204); test: Intracellular signalling by Western blot: phospho-ERK1/2; type: cell-based, human; conditions: serum-starved HEK293 cells, 100 μM, 10 or 30 min, vs. Basal
Description: as §3

[8] = system: SH-SY5Y cells; test: Cytotoxicity assay (MTS) on SH-SY5Y cells; type: cell-based; conditions: 1-, 4- and 24-h treatment
Description: as §1, §2

[9] = system: phospho-S6RP (Ser235/236); test: Intracellular signalling by Western blot: phospho-S6RP; type: cell-based, human; conditions: serum-starved HEK293 cells, 100 μM, 10 or 30 min, vs. Basal
Description: as §3

[10] = system: phospho-AMPK (Thr172); test: Intracellular signalling by Western blot: phospho-AMPK; type: cell-based, human; conditions: serum-starved HEK293 cells, 100 μM, 10 or 30 min, vs. Basal
Description: as §3

[11] = system: phospho-ACC (Ser79); test: Intracellular signalling by Western blot: phospho-ACC; type: cell-based, human; conditions: serum-starved HEK293 cells, 100 μM, 10 or 30 min, vs. Basal
Description: as §3

[12] = system: HIF-1α; test: Intracellular signalling by Western blot: HIF-1α abundance; type: cell-based, human; conditions: serum-starved HEK293 cells, 100 μM, 10 or 30 min, vs. Basal
Description: as §3

[13] = molecular target: BChE; conditions: cited from earlier work
[14] = molecular target: AChE; conditions: ref [47]; cited from earlier work
[15] = molecular target: AChE; conditions: ratio of literature Ki values from [47], [48],[49]
[16] = human, HEK293 cells, MTS assay, 6.25–800 µM, mean of at least three experiments with standard error

Sequence of human AChE (P22303 other isoform, or with tags, fused parts or gaps): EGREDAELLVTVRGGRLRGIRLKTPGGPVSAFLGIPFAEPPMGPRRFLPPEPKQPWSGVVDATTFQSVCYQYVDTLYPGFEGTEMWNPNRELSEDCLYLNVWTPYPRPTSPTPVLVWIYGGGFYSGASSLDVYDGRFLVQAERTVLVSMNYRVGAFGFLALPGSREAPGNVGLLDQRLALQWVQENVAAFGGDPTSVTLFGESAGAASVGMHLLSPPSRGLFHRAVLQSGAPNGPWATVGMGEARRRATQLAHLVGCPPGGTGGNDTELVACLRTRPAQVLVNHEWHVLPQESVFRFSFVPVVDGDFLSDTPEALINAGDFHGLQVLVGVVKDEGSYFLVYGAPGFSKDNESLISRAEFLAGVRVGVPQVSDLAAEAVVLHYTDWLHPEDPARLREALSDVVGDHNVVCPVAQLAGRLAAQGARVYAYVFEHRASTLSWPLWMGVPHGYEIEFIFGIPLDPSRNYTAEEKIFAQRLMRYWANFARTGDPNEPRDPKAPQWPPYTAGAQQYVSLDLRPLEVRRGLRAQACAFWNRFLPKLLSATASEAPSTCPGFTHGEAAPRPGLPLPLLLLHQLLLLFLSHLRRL
Sequence of human BChE (P06276 29-602): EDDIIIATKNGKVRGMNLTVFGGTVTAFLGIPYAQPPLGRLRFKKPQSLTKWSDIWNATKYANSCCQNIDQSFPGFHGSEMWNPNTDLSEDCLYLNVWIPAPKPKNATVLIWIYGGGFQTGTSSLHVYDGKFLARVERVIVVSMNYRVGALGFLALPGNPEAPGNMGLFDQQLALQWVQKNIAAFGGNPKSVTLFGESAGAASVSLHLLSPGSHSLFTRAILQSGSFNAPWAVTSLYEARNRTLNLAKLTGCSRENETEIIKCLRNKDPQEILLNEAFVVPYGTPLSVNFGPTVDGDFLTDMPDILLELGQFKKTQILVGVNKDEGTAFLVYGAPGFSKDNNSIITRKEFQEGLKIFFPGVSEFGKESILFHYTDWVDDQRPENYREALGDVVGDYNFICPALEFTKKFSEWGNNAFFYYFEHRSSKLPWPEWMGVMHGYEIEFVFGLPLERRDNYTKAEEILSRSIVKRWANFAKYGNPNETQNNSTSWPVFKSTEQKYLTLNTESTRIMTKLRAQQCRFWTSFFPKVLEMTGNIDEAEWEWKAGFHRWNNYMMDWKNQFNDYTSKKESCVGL

NC(=O)c1ccc[n+](CC(=O)c2ccccc2)c1 [Compound 1]
IC50 [1, 16]: ≤ 800 µM | Ki [2]: 79 ± 11 µM | Ki (AChE)/Ki (BChE) [2]: 0.34 | IC50 [3]: ≥ 800 µM | Ki [4]: 232 ± 20 µM

NC(=O)c1ccc[n+](CC(=O)c2ccc(F)cc2)c1 [Compound 2]
IC50 [1, 16]: ≥ 800 µM | Ki [2]: 85 ± 15 µM | Ki (AChE)/Ki (BChE) [2]: 0.14 | IC50 [3]: ≥ 800 µM | Ki [4]: 595 ± 73 µM

NC(=O)c1ccc[n+](CC(=O)c2ccc(Cl)cc2)c1 [Compound 3]
phosphorylation of Akt (Ser473) [5]: suppressing | time dependence of cytotoxicity on HEK293 cells [6]: time-dependent mechanism | IC50 [1, 16]: ~85 µM | Ki [2]: 33 ± 5 µM | Ki (AChE)/Ki (BChE) [2]: 0.15 | phosphorylation of ERK1/2 (Thr202/Tyr204) [7]: tended to transiently increase | time dependence of cytotoxicity on SH-SY5Y cells [8]: time-dependent mechanism | IC50 [3]: ≤ 800 µM | phosphorylation of S6RP (Ser235/236) [9]: increased | phosphorylation of AMPK (Thr172) [10]: did not respond | phosphorylation of ACC (Ser79) [11]: did not respond | abundance of HIF-1α [12]: not statistically significant | Ki [4]: 224 ± 23 µM

NC(=O)c1ccc[n+](CC(=O)c2ccc(Br)cc2)c1 [Compound 4]
phosphorylation of Akt (Ser473) [5]: suppressing | time dependence of cytotoxicity on HEK293 cells [6]: time-dependent mechanism | IC50 ([6]; HEK293 cells, MTS assay, 6.25–800 µM, mean of at least three experiments with standard error): 83 ± 1 µM | IC50 [1, 16]: ~85 µM | Ki [2]: 11 ± 3 µM | Ki (AChE)/Ki (BChE) [2]: 0.23 | phosphorylation of ERK1/2 (Thr202/Tyr204) [7]: tended to transiently increase | time dependence of cytotoxicity on SH-SY5Y cells [8]: time-dependent mechanism | IC50 [3]: 501 ± 2 µM | phosphorylation of S6RP (Ser235/236) [9]: increased | phosphorylation of AMPK (Thr172) [10]: did not respond | phosphorylation of ACC (Ser79) [11]: did not respond | abundance of HIF-1α [12]: increased | Ki [4]: 47 ± 15 µM

NC(=O)c1ccc[n+](CC(=O)c2ccc([N+](=O)[O-])cc2)c1 [Compound 5]
phosphorylation of Akt (Ser473) [5]: markedly pronounced | time dependence of cytotoxicity on HEK293 cells [6]: time-dependent mechanism | IC50 [1, 16]: 417 ± 1 µM | Ki [2]: 39 ± 5 µM | Ki (AChE)/Ki (BChE) [2]: 0.27 | phosphorylation of ERK1/2 (Thr202/Tyr204) [7]: reached statistical significance; also recorded: marked increase | time dependence of cytotoxicity on SH-SY5Y cells [8]: time-dependent mechanism | IC50 [3]: 214 ± 5 µM | phosphorylation of S6RP (Ser235/236) [9]: decreased | phosphorylation of AMPK (Thr172) [10]: markedly increased | phosphorylation of ACC (Ser79) [11]: markedly increased | abundance of HIF-1α [12]: unaltered | Ki [4]: 145 ± 24 µM

Cc1ccc(C(=O)C[n+]2cccc(C(N)=O)c2)cc1 [Compound 6]
IC50 [1, 16]: ≤ 800 µM | Ki [2]: 3 ± 1 µM | preference for binding to AChE over BChE ([2]; selectivity from Ki values): up to 80 times | Ki (AChE)/Ki (BChE) [2]: 0.01 | IC50 [3]: ≥ 800 µM | Ki [4]: 242 ± 22 µM

COc1ccc(C(=O)C[n+]2cccc(C(N)=O)c2)cc1 [Compound 7]
IC50 [1, 16]: ≥ 800 µM | Ki [2]: 19 ± 2 µM | Ki (AChE)/Ki (BChE) [2]: 0.08 | IC50 [3]: ≥ 800 µM | Ki [4]: 216 ± 34 µM

NC(=O)c1ccc[n+](CC(=O)c2ccc(-c3ccccc3)cc2)c1.[Br-] [Compound 8, 1-(4′-phenylphenacyl)-3-carbamoylpyridinium bromide]
phosphorylation of Akt (Ser473) [5]: markedly pronounced | IC50 ([1]; human; HEK293 cells, MTS assay, 6.25–800 µM, mean of at least three experiments with standard error): 155 ± 1 µM | Ki [2]: 4 ± 0.2 µM | Ki (AChE)/Ki (BChE) [2]: 0.50 | phosphorylation of ERK1/2 (Thr202/Tyr204) [7]: reached statistical significance; also recorded: marked increase | time dependence of cytotoxicity on SH-SY5Y cells [8]: time-dependent mechanism | IC50 [3]: 257 ± 1 µM | phosphorylation of S6RP (Ser235/236) [9]: unaltered | phosphorylation of AMPK (Thr172) [10]: not significantly altered | phosphorylation of ACC (Ser79) [11]: increased phosphorylation | abundance of HIF-1α [12]: increased

COc1ccccc1C(=O)C[n+]1cccc(C(N)=O)c1 [Compound 9]
IC50 [1, 16]: ≥ 800 µM | Ki [2]: 26 ± 4 µM | Ki (AChE)/Ki (BChE) [2]: 0.14 | IC50 [3]: ≥ 800 µM | Ki [4]: 180 ± 18 µM

CCN(CC)C(C)CN1c2ccccc2Sc2ccccc21 (stereo not drawn) [Ethopropazine]
Ki ([13]; ref [47]): 0.16 µM | Ki [14]: 161 µM | Ki (AChE)/Ki (BChE) [15]: 1010
